# Measurements taken from publication PMC4888278, “Structural determinant for inducing RORgamma specific inverse agonism triggered by a synthetic benzoxazinone ligand” (BMC Structural Biology, 2016).
# T1: RORγ (Homo sapiens, UniProt P51449)
# T1 construct: sub-cloning residues 259 to 518 of a human RORγ cDNA; GST (PreScission site) (N); made in house; host or cells: Escherichia coli BL21 (DE3)
# T1 sequence (P51449 259-518): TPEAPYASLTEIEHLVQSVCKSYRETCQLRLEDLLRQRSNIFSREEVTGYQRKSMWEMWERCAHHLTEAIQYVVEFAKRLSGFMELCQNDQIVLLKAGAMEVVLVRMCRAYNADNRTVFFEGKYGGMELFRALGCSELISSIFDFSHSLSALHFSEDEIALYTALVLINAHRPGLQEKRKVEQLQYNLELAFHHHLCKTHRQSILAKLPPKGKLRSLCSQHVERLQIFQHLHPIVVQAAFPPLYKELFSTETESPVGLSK
# T2: GAL4 fused to the LBD of RORα (Homo sapiens, UniProt P35398)
# T2 construct: cells expressing GAL4 fused to the LBD of ROR α or β, respectively; expressed in transfected cells
# T2 sequence (P35398 272-510 limits assumed): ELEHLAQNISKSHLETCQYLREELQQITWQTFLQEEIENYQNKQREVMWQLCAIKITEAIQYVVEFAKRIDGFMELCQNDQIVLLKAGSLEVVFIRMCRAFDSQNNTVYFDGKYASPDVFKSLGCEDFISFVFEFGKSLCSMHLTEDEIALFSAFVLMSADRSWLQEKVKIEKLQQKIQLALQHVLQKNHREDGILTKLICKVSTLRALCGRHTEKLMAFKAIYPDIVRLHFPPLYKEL
# T3: RORγ-GAL4 fusion (Homo sapiens, UniProt P51449)
# T3 construct: expressed in transfected cells
# T3 sequence (P51449 269-508 limits assumed): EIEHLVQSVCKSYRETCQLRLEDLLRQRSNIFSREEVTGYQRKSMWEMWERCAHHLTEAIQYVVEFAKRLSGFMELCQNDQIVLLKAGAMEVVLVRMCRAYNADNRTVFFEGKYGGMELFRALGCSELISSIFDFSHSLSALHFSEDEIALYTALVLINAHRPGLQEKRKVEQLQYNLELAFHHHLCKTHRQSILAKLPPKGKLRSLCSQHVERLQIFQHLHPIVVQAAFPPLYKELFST
# T4: GAL4 fused to the LBD of RORβ (Homo sapiens, UniProt Q92753)
# T4 construct: cells expressing GAL4 fused to the LBD of ROR α or β, respectively; expressed in transfected cells
# T4 sequence (Q92753 222-460 limits assumed): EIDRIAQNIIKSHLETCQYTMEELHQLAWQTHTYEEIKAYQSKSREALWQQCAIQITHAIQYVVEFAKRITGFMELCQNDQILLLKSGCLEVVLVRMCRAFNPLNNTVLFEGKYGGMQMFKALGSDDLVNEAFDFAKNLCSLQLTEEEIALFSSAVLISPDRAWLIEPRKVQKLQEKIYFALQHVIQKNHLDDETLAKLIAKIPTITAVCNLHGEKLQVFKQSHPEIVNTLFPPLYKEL
# T5: RORγ518 (human RORγ ligand binding domain, residues 259-518) (human, UniProt P51449 259-518)
# T5 construct: Cloned in pGEX-6P; GST removed with PreScission Protease before SEC, crystallisation and proteolysis; also called GST-RORγ518 (before cleavage); source: E. coli BL21 (DE3), purified (Glutathione Sepharose, PreScission Protease, Superdex 75); not shown: GST, N-terminal, cleaved
# T5 sequence (looked up): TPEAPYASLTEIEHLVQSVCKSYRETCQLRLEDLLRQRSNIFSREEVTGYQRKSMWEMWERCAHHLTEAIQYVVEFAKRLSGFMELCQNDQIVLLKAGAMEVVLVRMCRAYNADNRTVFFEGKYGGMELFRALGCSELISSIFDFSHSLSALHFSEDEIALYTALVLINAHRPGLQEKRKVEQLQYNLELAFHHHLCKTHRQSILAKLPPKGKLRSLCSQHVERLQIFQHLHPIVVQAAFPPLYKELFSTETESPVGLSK
# B1: coactivator peptide EBI96 (peptide)
# peptide: EFPYLLSLLGEVSPQ
# notes: source: synthetic peptide; bought: New England Peptide
# Legend:
# [1] = molecular target: T1, RORγ; test: FRET based assay monitoring coactivator peptide TRAP220 recruitment to RORγ; assay type: biochemical
# Procedure: (§1) FRET-based (Fluorescence Resonance Energy Transfer) assay and the GAL4 Reporter assay were performed as described previously. BIO592 and BIO399 were synthesized (Additional file 1) and belonged to a proprietary library where they were identified as RORγ activity modulators using the FRET-based assay.
# [2] = system: RORγ; design: method as in PMID 24239186; settings: SRC1 displacement FRET assay; cited from earlier work
# [3] = molecular target: T2, GAL4 fused to the LBD of RORα; test: GAL4 cellular luciferase reporter assay, GAL4 fused to LBD of RORα; assay type: cell-based
# Procedure: as §1
# (§2) In order to assess the in vivo selectivity profile of BIO399 a cellular reporter assay was implemented where the ligand binding domains of ROR α, β and γ were fused to the DNA binding domain of the transcriptional factor GAL4. The ROR-GAL4 fusion proteins were expressed in cells with the luciferase reporter gene under the control of a GAL4 promoter. […] The LBS of RORs share a high degree of similarity. However, the inverse agonism trigger of BIO399, residue Met358, is a leucine in both RORα and β. This selectivity profile for BIO399 is attributed to the shorter leucine side chain in RORα and β which would not reach the phenylalanine on the AF2 helix further underscoring the role of Met358 as a trigger for RORγ specific inverse agonism (Fig. 7a). Furthermore, RORα contains two phenylalanine residues in its LBS whereas RORβ and γ have a leucine in the same position (Fig. 6b). We hypothesize that the two phenylalanine residues in the LBS of RORα occlude the dihydrobenzoxazepinone ring system of BIO399 from binding it and responsible for the increase in […].
# [4] = molecular target: T3, RORγ-GAL4 fusion; test: GAL4 cellular luciferase reporter assay, RORγ-GAL4 fusion; assay type: cell-based
# Procedure: as §1, §2
# [5] = molecular target: T4, GAL4 fused to the LBD of RORβ; test: GAL4 cellular luciferase reporter assay, GAL4 fused to LBD of RORβ; assay type: cell-based
# Procedure: as §1, §2
# [6] = molecular target: T5, RORγ518 (human RORγ ligand binding …); test: crystal structure; RORγ518 8 mg/ml with 0.5 mM EBI96 and 1 mM agonist BIO592; vapor diffusion, 0.1 M HEPES pH 8.0, 25 % PEG3350, 0.2 M NaCl, 18 °C; 2.63 Å, P21, four ternary complexes in the asymmetric unit; settings: both partners purified
molecule,measurement,setting,value
"CCN1C(=O)COc2cc(N(CC(F)(F)F)S(=O)(=O)c3ccc(C)c(C)c3)ccc21 [BIO592, N-(4-ethyl-3-oxo-3,4-dihydro-2H-benzo[b][1,4]oxazin-7-yl)-3,4-dimethyl-N-(2,2,2-trifluoroethyl)benzenesulfonamide]",Emax,"[1]; agonist, coactivator peptide TRAP220 recruitment",130%
same,EC50,"[1]; agonist, increase of coactivator peptide TRAP220 recruitment to RORγ",58 nM
"CCN1C(=O)C(C)(C)COc2cc(N(CC(F)(F)F)S(=O)(=O)c3ccc(C)c(C)c3)ccc21 [BIO399, N-(9-Ethyl-7,7-dimethyl-8-oxo-6,7,8,9-tetrahydro-5-oxa-9-aza-benzocyclohepten-3-yl)-3,4-dimethyl-N-(2,2,2-trifluoro-ethyl)-benzenesulfonamide]",IC50,"[3]; GAL4 cell assay, RORα, N = 2",> 10000 nM
same,Selectivity,"[3]; GAL4 cell assay, RORγ versus RORα",>235 X
same,fold selectivity over RORα,"[3]; GAL4 reporter, RORγ versus RORα",> 235 fold
same,IC50,"[4]; GAL4 cell assay, RORγ, N = 6",43 nM
same,IC50,"[4]; luciferase activity, cells expressing RORγ-GAL4 fusion",42.5 nM
same,IC50,"[1]; inverse agonist, inhibition of coactivator recruitment in the authors' FRET assay",4.7 nM
same,IC50,"[5]; GAL4 cell assay, RORβ, N = 2",> 1200 nM
same,Selectivity,"[5]; GAL4 cell assay, RORγ versus RORβ",>28.2 X
same,fold selectivity over RORβ,"[5]; GAL4 reporter, RORγ versus RORβ",> 28 fold
B1,binding result,[6],binds
